Measured values as given in the METLIN SMRT retention time set (Domingo-Almenara et al. 2019).

Assay: gradient 5% acetonitrile 3 min, to 50% in 2 min, to 85% in 15 min, held 3 min, 100 µL/min
Conditions: column: Zorbax Extend-C18 2.1 x 50 mm; eluents: water / acetonitrile, 0.1% formic acid
Outline: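 A Zorbax Extend-C18 column (2.1 × 50 mm, 1.8 μm) run at 100 μL/min with water and acetonitrile, both containing 0.1% formic acid, separated mixtures of ~100 pure standards. The HPLC was coupled to a quadrupole time-of-flight mass spectrometer operated in positive and negative ionization mode, with dead and dwell volumes of 40 μL and 900 μL. Each retention time was taken from a computationally picked adduct peak that was then manually inspected.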

Which RP-LC retention time does the source give for `O=C(Cn1ccnc1-c1ccnc(N2CCSCC2)c1)NCc1ccc(F)cc1` here?
The RP-LC retention time was 653 s.

With `CCCn1cc(CCNC(=O)Nc2c(F)cccc2F)c2cccnc21` as the compound, how does the RP-LC retention time read?
The RP-LC retention time was 699 s.

For `Nc1ccc(C(=O)Nc2cccc(N)c2)cc1`, which RP-LC retention time is on record?
Its RP-LC retention time is 752 s.

For `CC(C)NC(=O)N1CCC2(CC1)C(=O)N(C)c1ccccc12`, which RP-LC retention time is on record?
Its RP-LC retention time is 697 s.

With `Cc1[nH]c(C(=O)N2CCC(CC(=O)NC3CCCCC3)CC2)c(C)c1C(=O)OC(C)C` as the compound, how does the RP-LC retention time read?
The RP-LC retention time was 825 s.

Which RP-LC retention time does the source give for `CC(C)(C)c1ccc(C(=O)NCc2cnn3ccccc23)cc1` here?
The RP-LC retention time was 806 s.

With `O=C1CC(c2ccccc2)N(C2CCC2)CCCCCN1` (configuration not stated) as the compound, how does the RP-LC retention time read?
The RP-LC retention time was 595 s.

With `CCCNc1cc(N2CCCC(CCC(=O)Nc3ccccc3)C2)ncn1` (configuration not stated) as the compound, how does the RP-LC retention time read?
The RP-LC retention time was 703 s.

With `COC(=O)c1c(C)sc(-c2c(-c3ccc(Br)cc3)[nH]c3[nH]c(=O)[nH]c(=O)c23)c1O` as the compound, how does the RP-LC retention time read?
Its RP-LC retention time is 791 s.

For `Cc1cc(NC(=O)C2CCCN(c3ncnc4c3nc3n4CCCCC3)C2)no1` (configuration not stated), which RP-LC retention time is on record?
The RP-LC retention time was 751 s.

For `Cc1c(C(=O)N2CCOCC2)cc(-c2ccccc2)n1C`, which RP-LC retention time is on record?
Its RP-LC retention time is 616 s.

For `CCc1nc2cc(N3CCCC(C(=O)N4CCC5(CC4)OCCO5)C3)cnc2nc1CC` (configuration not stated), which RP-LC retention time is on record?
Its RP-LC retention time is 769 s.

Which RP-LC retention time does the source give for `COc1ccc(OC)c(NC(=O)Cn2c(=O)c(CCC(=O)NCC(C)C)nc3ccccc32)c1` here?
Its RP-LC retention time is 798 s.

For `CCNC(=O)C1CCCN(c2nc3ncn(CC(=O)Nc4c(C)cc(C)cc4C)c(=O)c3s2)C1` (configuration not stated), which RP-LC retention time is on record?
The RP-LC retention time was 715 s.

With `O=C(Cn1nc2nc(Nc3ccc(F)cc3)ccn2c1=O)Nc1ccccc1F` as the compound, how does the RP-LC retention time read?
The RP-LC retention time was 754 s.

With `O=C(Cc1ccsc1)N1CCn2c(nnc2-c2ccccc2)C1` as the compound, how does the RP-LC retention time read?
Its RP-LC retention time is 671 s.

For `COc1cc(OC)c(NS(=O)(=O)c2ccc3c(c2)-c2oncc2CO3)cc1Cl`, which RP-LC retention time is on record?
The RP-LC retention time was 910 s.

With `COCC1CN(Cc2ccc(OC(F)(F)F)cc2)CC12CCNCC2` (configuration not stated) as the compound, how does the RP-LC retention time read?
The RP-LC retention time was 579 s.

With `Cc1noc(-c2cc(=O)n(CC(=O)NC3CCCC3)c3ccccc23)n1` as the compound, how does the RP-LC retention time read?
Its RP-LC retention time is 782 s.

Which RP-LC retention time does the source give for `O=C(NCC1CCOCC1)c1cnc(Nc2ccc(Cl)cc2Cl)nc1C(F)(F)F` here?
The RP-LC retention time was 997 s.

For `CCc1nc(-c2csc(S(=O)(=O)N3CCCC(C(=O)NC4CC4)C3)c2)no1` (configuration not stated), which RP-LC retention time is on record?
The RP-LC retention time was 787 s.

For `CCn1cnc(S(=O)(=O)N2CCC(C(=O)Nc3nc4ccc(OC)cc4s3)CC2)c1`, which RP-LC retention time is on record?
Its RP-LC retention time is 748 s.

Which RP-LC retention time does the source give for `Cc1n[nH]c(C)c1S(=O)(=O)N1CCOCC1` here?
The RP-LC retention time was 582 s.

With `O=C(Nc1nnc(C2CC(=O)N(c3ccc(F)cc3)C2)o1)c1cccc(F)c1` (configuration not stated) as the compound, how does the RP-LC retention time read?
Its RP-LC retention time is 730 s.

With `O=C(COc1ccccc1F)NC1CCCC(OC(=O)Nc2ccccc2)C1` (configuration not stated) as the compound, how does the RP-LC retention time read?
Its RP-LC retention time is 872 s.

Which RP-LC retention time does the source give for `CCCNC(=O)C1CCCN(c2nc3ncn(CC(=O)NC4CCCC4)c(=O)c3s2)C1` (configuration not stated) here?
Its RP-LC retention time is 641 s.

For `CN1C(=O)[C@H]2CN(Cc3ccc(Cl)c(F)c3)C[C@H]2C1=O`, which RP-LC retention time is on record?
The RP-LC retention time was 632 s.

For `O=C(NC1CCN(Cc2ccccc2)CC1)C1CCN(c2cnc3nccnc3c2)CC1`, which RP-LC retention time is on record?
The RP-LC retention time was 570 s.

Which RP-LC retention time does the source give for `Cc1noc(C)c1CCC(=O)NCCOc1cccc2cccnc12` here?
The RP-LC retention time was 548 s.

Which RP-LC retention time does the source give for `Cc1ccccc1CC(=O)N1CCN(c2cc(C)n3cnnc3n2)CC1` here?
The RP-LC retention time was 608 s.

Which RP-LC retention time does the source give for `CCOC(=O)c1cc(C2CC2)nc2c1c(=O)n(Cc1cccc(C(F)(F)F)c1)c(=O)n2C` here?
Its RP-LC retention time is 1270 s.

For `COc1ccc(-c2cc(N3CCC(NC(=O)c4ccc(Br)cc4)C3)n[nH]2)cc1` (configuration not stated), which RP-LC retention time is on record?
Its RP-LC retention time is 966 s.

For `Cc1cc(C(=O)N2CCOCC2)c2cccc(Cl)c2n1`, which RP-LC retention time is on record?
The RP-LC retention time was 682 s.

Which RP-LC retention time does the source give for `O=c1ccc(N2CCCN(S(=O)(=O)c3ccc(Cl)cc3)CC2)nn1-c1ccccc1` here?
The RP-LC retention time was 868 s.

With `Cc1oc(-c2ccc(Cl)cc2)nc1CN1CCCC(C(=O)NC2CCCCC2C)C1` (configuration not stated) as the compound, how does the RP-LC retention time read?
Its RP-LC retention time is 835 s.

With `N#C/C(=C\c1ccc(-c2cc(Cl)ccc2Cl)o1)C(=O)Nc1cccc2ncccc12` as the compound, how does the RP-LC retention time read?
The RP-LC retention time was 1110 s.

For `CCCNC(=O)C1CC(=O)N(CCc2c[nH]c3ccc(F)cc23)C1` (configuration not stated), which RP-LC retention time is on record?
Its RP-LC retention time is 684 s.
